# In patent publication US20210338684A1, “DIAGNOSTIC AND THERAPEUTIC METHODS FOR CANCER” (Genentech, Inc., priority 2016, published 2021):
# Entries after “also recorded” stand apart in the source; their conditions may differ.
# What was measured:
# [1] = tested on: SMARCA2; experiment: SMARCA2 expression (Taqman quantitative RT-PCR, Western blot); conditions: for induction of SMARCA2 transcript and protein: 6 or 10 days
# [2] = tested on: SMARCA4-mutant cancer cell lines; experiment: Clonogenic assay (colony formation)
# [3] = tested on: ARID1A-mutant cell lines; experiment: 3D Matrigel culture, acini formation; assay type: cell-based, human
# Procedure: Wells of a 24 well plated were coated with 70 μl Matrigel Matrix (Corning) and allowed to congeal at room temperature. Cells (n=5,000) were plated on top of the basement matrix in 400 μl RPMI+10% FBS containing 2% Matrigel matrix. Cells were treated with the respective compounds in 400 μl media to replenish the old media. Colonies were imaged on a Zeiss Axio Observer A1 microscope 10 days after the start of experiment.
# [4] = tested on: ARID1A-mutant cancer cell lines; experiment: Clonogenic assay (colony formation); assay type: cell-based, human
# Procedure: (§1) 1,800-5,000 cells were plated in each 6-well plate, according to the doubling time. 24 hours after plating, the medium was removed and replaced with medium containing EPZ-6438 at different concentrations. Fresh medium with EPZ-6438 was replaced every 3 to 4 days until control cells reached confluence to stop culture. For studies evaluating the effect of EZH2 knockout, cells were plated 7 days following puromycin selection. The medium was removed, and cells were washed with PBS and stained with 0.5% crystal violet for 20 minutes at room temperature. Dye was removed, cell monolayers were washed with water, and the plate was washed and photographed.
# [5] = tested on: TOV-112D cells; experiment: Caspase 3/7 apoptosis assay; assay type: cell-based, human
# Procedure: (§2) Apoptosis was monitored through (a) live cell imaging analysis using the Incucyte Caspase-3/7 Apoptosis Assay (Essen Biosciences, Cat. No. 4440) or through a static time point assessment using the Caspase-Glo 3/7 Assay (Promega, G8090). For Incucyte-based assays (FIG. 4B), 300-600 cells (based on doubling time) were plated in 96-well plates, and at 24 hours, media was replaced with EPZ-6438-containing media at the indicated concentrations and Caspase 3/7 reagent (Essen Bioscience). Fresh media containing EPZ-6438 and Caspase 3/7 reagent was replaced every 3 to 4 days. Phase contrast and fluorescent images were collected every 3 hours, and the number of fluorescent objects were counted and analyzed according to the Incucyte protocol. Data are presented as Caspase 3/7 fluorescent counts normalized to DMSO control at the indicated time points. For determination of apoptosis by Caspase-Glo (FIG. 18C, 19G), TO[…] cells were plated at 500 cells per well in a 96 well plate and treated with the indicated concentrations of EPZ-6438 for 6 days. Caspase 3/7 activity was measured according to the manufacturer's instructions, and results were normalized to signal in DMSO control wells, when indicated. To evaluate senescence induction, cells were stained for β-galactosidase activity using the Senescence Cells Histochemical Staining Kit (Sigma), according to the manufacturers instructions.
# [6] = tested on: SMARCA4-mutant cell lines; experiment: Caspase 3/7 apoptosis assay; assay type: cell-based, human; conditions: several other models, prolonged exposure
# Procedure: as §2
# [7] = tested on: H3K27 methylation in NCI-H522 tumor xenograft tissue; experiment: Pharmacodynamic Western blot of xenograft tumor tissue; assay type: in vivo, mouse; conditions: strongest at 450 mg/kg BID; day 7, three hours after dosing
# Procedure: (§3) Plasma and tumor samples for pharmacodynamic analysis were collected from tumor-bearing mice on day 7, 3 hours following the last dose. Tumor tissue was lysed in RIPA buffer containing 1M NaCl and homogenized for 3 minutes at speed 10 (NEXTADVANCE, BULLET BLENDER® 24) prior to Western blotting.
# [8] = tested on: H3K27me3 in TOV-21G tumor xenograft tissue; experiment: as above; assay type: in vivo, mouse; conditions: day 7, three hours following twice-daily oral administration
# Procedure: as §3
# [9] = molecular target: SMARCA4-mutant EPZ-6438-sensitive models; experiment: Senescence β-galactosidase staining; assay type: cell-based, human
# Procedure: as §2
# [10] = tested on: H3K27me3 at the SMARCA2 promoter; experiment: H3K27me3 ChIP-PCR; assay type: cell-based, human; conditions: TOV-112D cells
# Procedure: For each sample, 10×10^6 cells were harvested and washed with 1×PBS. Cells were fixed and sheared following the instructions provided with the truChlP Chromatin Shearing Reagent Kit (Covaris). Cells were fixed for 5 minutes with 1% formaldehyde and then quenched with quenching buffer for 5 minutes. Cells were then washed with cold 2×PBS. Nuclei were isolated and sheared using the Covaris AFA Focused-ultrasonicator for 20 minutes. The IP was conducted with 500 μg sheared chromatin and 10 μg anti-H3K27me3 (Active Motif cat #39155) or anti-Rabbit IgG. The Magna ChIP kit (Millipore) was used for IP. For each IP, a 50 μl mixture of Dynabeads protein A and G (50/50 mix) was incubated with primary antibody for 3 hours. The beads were added to 500 μg of sheared chromatin. The beads and antibodies were incubated overnight at 4° C. The beads were then washed with the following wash buffers: low salt, high salt, LiCI wash buffer, and TE Buffer. DNA was extracted from the beads in ChIP elution buffer with protease K at 64° C. with shaking overnight. DNA was then purified using the QIAquick PCR Purification Kit (Qiagen). DNA was eluted with 30 μl of water. 1.0 μl of eluted DNA was used for each SYBR green PCR reaction. SMARCA2 was amplified using the following primers: forward, […] (SEQ ID NO: 27); reverse, […] (SEQ ID NO: 28). […]
# [11] = tested on: mono-, di-, and tri-methylated H3K27; experiment: Western blot of H3K27 methylation in cells
# [12] = tested on: NCI-H522 cells; experiment: Edu incorporation (DNA synthesis); assay type: cell-based, human; conditions: 8 weeks of treatment, relative to resistant NCI-H1568
# [13] = tested on: cathepsin B (CTSB); experiment: CTSB transcript and protein expression; assay type: cell-based, human; conditions: TOV-112D control cells, 5 μM
# Procedure: For studies evaluating EPZ-6438 effects, cells were treated with various doses of EPZ-6438 for 6 days. On day 3, fresh medium containing EPZ-6438 was introduced. Cell pellets were lysed in RIPA buffer containing 1M NaCl and homogenized for 3 minutes at speed 10 (NextAdvance, Bullet Blender® 24). 12 μg or 18 μg protein was dissolved in 4-12% bis-Tris or 3-8% Tris-acetate gel and transferred to polyvinylidend difluoride (PVDF) membranes. IRDYE® secondary antibodies were used for detection by an Odyssey Imager (LI-COR). Total RNA was extracted using Qiagen RNeasy Plus Mini kit, according to the manufacturers protocol. Quality control of samples was performed to determine RNA quantity and quality prior to their processing by RNA-seq. The concentration of RNA samples was determined using NanoDrop 8000 (Thermo Scientific) and the integrity of RNA was determined by Fragment Analyzer (Advanced Analytical Technologies). 0.5 μg of total RNA was used as an input material for library preparation using TruSeq RNA Sample Preparation Kit v2 (Illumina). Size of the libraries was confirmed using 2200 TapeStation and High Sensitivity D1K screen tape (Agilent Technologies), and their concentration was determined by qPCR based method using Library quantification kit (KAPA). The libraries were multiplexed and sequenced on Illumina HiSeq2500 (Illumina) to generate 30M of single end 50 base pair reads.
# [14] = tested on: SMARCA4-mutant cell lines; experiment: Cell morphology after prolonged treatment; assay type: cell-based, human; conditions: EPZ-6438-sensitive models, 21 days of treatment, 5 μM
# [15] = tested on: SWI/SNF wild-type models; experiment: Clonogenic assay (colony formation); assay type: cell-based, human; conditions: panel (n=8) of cell lines wildtype for SWI/SNF complex genes
# Procedure: as §1
# [16] = tested on: SMARCB1-mutant malignant rhabdoid tumor lines; experiment: Clonogenic assay (colony formation); assay type: cell-based, human; conditions: two SMARCB1-mutant malignant rhabdoid tumor lines
# Procedure: as §1
# [17] = tested on: TOV-21G tumor xenografts; experiment: Xenograft study, tumor growth; assay type: in vivo, mouse; conditions: SCID mice, 450 mg/kg BID, 28 days
# Procedure: (§4) TOV-21G and NCI-H522 cells (American Type Culture Collection, Manassas, Va.) were cultured in vitro and harvested in HBSS:Matrigel (BD Biosciences; Franklin Lakes, N.J.) (1:1, v:v) for subcutaneous inoculation into female mice. TOV-21G cells were inoculated into Fox Chase SCIO® Beige mice (Charles River Laboratories, San Diego, Calif.). NCI-H522 cells were inoculated into BALB/c Nude mice (Vital River Laboratories, Beijing, China). Mice bearing established tumors were separated into groups of equally sized tumors (n=5, minimum) to receive escalating doses of EPZ-6438. EPZ-6438 was formulated once weekly in 0.5% sodium carboxymethylcellulose and 0.1% tween-80 at concentrations needed for target doses in a volume of 0.2 ml. All formulations were stored at 4° C., brought to room temperature, and mixed by vortex before oral administration by gavage twice daily from Day 1 until the end of the study. Tumor volumes were calculated from perpendicular length and width caliper measurements using the formula:
# (§5) Tumor Volume (mm^3)=0.5×(Length×Width^2).
# (§6) A mixed modeling approach was used to analyze the repeated measurement of tumor volumes from the same animals over time. Cubic regression splines were used to fit a nonlinear profile to the time courses of log 2-transformed tumor volumes in each group. Fitting was done via a linear mixed-effects model, using the package “nlme” (version 3.1-97) in R version 2.13.0 (R Development Core Team 2008; R Foundation for Statistical Computing; Vienna, Austria). Fitted tumor volumes were plotted in the natural scale in Prism (version 5.0b for Mac) (GraphPad Software; La Jolla, Calif.).
# [18] = tested on: NCI-H522 xenografts; experiment: Xenograft study, tumor growth; assay type: in vivo, mouse; conditions: oral
# Procedure: as §4, §5, §6
# [19] = SMARCA4-mutant cells resistant to EPZ-6438 (H1299, A549)
# [20] = SMARCA4-mutant cells sensitive to EPZ-6438 (SNU-484, TOV112D), dose-dependent
# [21] = OVTOKO and OVISE ARID1A-mutant cell lines
# [22] = COV434, SNU-484 and G401 cells expressing shBRM
compound,measurement,setting,value
Nc1ncn([C@H]2C[C@H](O)[C@@H](CO)O2)c(=O)n1 [5-aza-2′-deoxycytidine],SMARCA2 mRNA levels,[1]; SMARCA4-mutant cells with repressed SMARCA2,did not impact
CCS(=O)(=O)N1CCC([C@@H](C)n2c(C)c(C(=O)NCc3c(OC)cc(C)[nH]c3=O)c3ccccc32)CC1 [CPI-169],colony formation,[2]; [19],no effect
same,colony formation,[2]; [20],inhibited colony formation
same,acini formation,[3]; A2780 cells (positive control),inhibition of both clonogenic growth and acini formation
same,acini formation,[3]; [21],lack of activity
same,differential sensitivity of colony formation,[4]; ARID1A-mutant versus ARID1A-WT ovarian cell lines,phenocopied
CCN(c1cc(-c2ccc(CN3CCOCC3)cc2)cc(C(=O)NCc2c(C)cc(C)[nH]c2=O)c1C)C1CCOCC1 [EPZ-6438],dose-dependent induction of apoptosis in cells expressing shBRM,"[5]; TOV-112D cells expressing shBRM, 6 days",prevented
same,activation of caspase 3/7 in cells expressing shCTSB,[5]; TOV-112D cells expressing shRNAs targeting CTSB,significantly suppressed
same,apoptotic response (caspase 3/7),"[5]; TOV-112D cells, seven days of treatment",strong apoptotic response
same,apoptosis (caspase 3/7),[6],subpopulations of apoptotic cells
same,H3K27me3 and H3K27me2 in tumor tissue,[7],reduction of H3K27me3 and H3K27me2
same,H3K27me3 in tumor tissue,[8],target inhibition
same,colony formation in cells expressing SMARCA2 shRNA (shBRM),[2]; [22],did not affect the ability of EPZ-6438 to inhibit colony formation
same,dose-dependent inhibition of colony formation in cells expressing shBRM,[2]; TOV-112D cells expressing shBRM,prevented the dose-dependent inhibition of colony formation
same,inhibition in colony formation,"[2]; panel of 11 SMARCA4-mutant cancer cell lines, increasing doses",dose-dependent inhibition in colony formation was observed in a subset
same,kinetics of senescence induction (homogenous β-galactosidase expression),[9]; COV434 model,homogenous expression of β-galactosidase by seven days
same,kinetics of senescence induction (homogenous β-galactosidase expression),[9]; NCI-HS22 cells,not observed until a few weeks
same,senescence-associated β-galactosidase expression,"[9]; some SMARCA4-mutant EPZ-6438-sensitive models, most notable in COV434 and NCI-HS22",Increases in senescence-associated β-galactosidase expression
same,association of H3K27me3 with the SMARCA2 gene promoter,[10],significant decrease
same,inhibition of H3K27 methylation in cells expressing shBRM,[11]; [22],no effect on the ability of EPZ-6438 to inhibit H3K27 methylation
same,"inhibition of mono-, di-, and tri-methylated H3K27","[11]; EPZ-6438-sensitive and EPZ-6438-resistant cell lines, dose-dependent, 6-day treatment","inhibited mono-, di-, and tri-methylated H3K27 to a similar extent"
same,acini formation,[3]; A2780 cells (positive control),inhibition of both clonogenic growth and acini formation
same,acini formation,[3]; [21],lack of activity
same,induction of SMARCA2 transcript and protein,"[1]; EPZ-6438-resistant SMARCA4-mutant cell lines, 5 μM",but not EPZ-6438-resistant
same,induction of SMARCA2,"[1]; EPZ-6438-sensitive ARID1A-mutant A2780 cells, 5 μM, 6 days",induction of SMARCA2
same,induction of SMARCA2 transcript and protein,"[1]; EPZ-6438-sensitive SMARCA4-mutant cell lines, 5 μM",strong induction
same,SMARCA2 levels,"[1]; SMARCB1-mutant MRT line G401, 6 days, EPZ-6438 5 μM, 5-Aza 1 μM",induction in SMARCA2 levels
same,DNA synthesis / proliferative state by Edu incorporation,[12],non-proliferative state; also recorded: inhibition of DNA synthesis
same,CTSB transcript and protein,[13],strongly upregulated
same,morphologic changes (cell flattening and enlargement),[14],pronounced morphologic changes
same,activity on colony formation,[15],No activity; also recorded: No effect
same,inhibition in colony formation,[4]; panel of ARID1A-mutant cancer cell lines,inhibition in colony formation was observed in a subset
same,inhibition in colony formation,[16],inhibition in colony formation
same,tumor growth inhibition,[17],tumor growth inhibition
same,tumor growth inhibition (TGI),[18]; 450 mg/kg BID,72%
same,inhibition of tumor growth,"[18]; twice daily (BID), 30, 100, 450 mg/kg, 23 days",dose-dependent inhibition of tumor growth
CC[C@H](C)n1cc(C)c2c(C(=O)NCc3c(C)cc(C)[nH]c3=O)cc(-c3ccc(N4CCNCC4)nc3)cc21 [GSK-126],colony formation,[2]; [19],no effect
same,colony formation,[2]; [20],inhibited colony formation
